{
  "source": "patent US20100260673A1",
  "about": "“PHAGE DISPLAY PEPTIDE PROBES FOR IMAGING EARLY RESPONSES TO ANTIANGIOGENIC TREATMENT” (priority 2009, published 2010)",
  "key": {"[1]": {"system": "4T1 murine breast cancer cells", "details": "4T1, 48 h incubation, various concentrations", "procedure": "(§1) Toxicity of AVP on Cell Viability by MTT Assay: MTT (3-(4,5-dimethylthiazolyl-2)-2,5-diphenyltetrazolium bromide; ATCC) assays were used to measure cell viability. Three thousand tumor cells or HUVECs were seeded per well in a 96-well plate and allowed to incubate for 24 h. After incubation with various concentrations of peptide AVP for 48 h, 10 μl of MTT reagent was added to each well. Four hours later, when the purple precipitate became visible, the supernatant was discarded, and 100 μl of DMSO was added to each well and the plate was shaken in the dark for 10 min at room temperature. The absorbance at 570 nm was then measured using a microplate reader (Tecan)."}, "[2]": {"system": "LS174T human colorectal cancer cells", "details": "48 h incubation, various concentrations", "procedure": "as §1"}, "[3]": {"system": "human umbilical vein endothelial cells (HUVEC)", "details": "48 h incubation, various concentrations", "procedure": "as §1"}, "[4]": {"system": "LS174T tumor", "details": "Bevacizumab-treated mice"}, "[5]": {"system": "4T1 tumor", "details": "Bevacizumab-treated mice"}, "[6]": {"system": "22B tumor", "details": "Bevacizumab-treated mice, 4T1 and 22B in the same animal"}, "[7]": {"system": "tumor that responds to the anti-angiogenic drug ZD4190 therapy", "details": "ZD4190-treated", "excerpt": "Two-dimensional NIR fluorescence images were acquired at various time points after injection using a Maestro in vivo imaging system (CRI, Woburn, Mass.; IRdye800 excitation=735 nm, emission=780 nm long pass)."}, "[8]": {"system": "LS174T tumor", "details": "mouse, in vivo", "procedure": "The 4T1 cells were harvested from the tumor and suspended in sterile PBS at a concentration of 2×10^7 viable cells/mL.\nTumor Growth Study: When palpable tumors (150-200 mm^3) were present in all animals, mice were randomly divided into two groups (n=10/group). Cancer therapy response was evaluated in LS174T human colorectal cancer, 4T1 murine breast cancer and 22B human head-neck cancer models. […] The mouse body weight and tumor volume were measured every 3 days for up to 20 days before euthanasia.\nSmall Animal PET Imaging: A detailed procedure for positron emission tomography (PET) imaging has been reported earlier (Li et al., (2008) J. Nucl. Med. 49: 453-461). Briefly, PET scans were performed using a microPET R4 rodent model scanner (Siemens Medical Solutions). […] The images were reconstructed by a two-dimensional ordered subsets expectation maximum (OSEM) algorithm with no attenuation or scatter correction. For each microPET scan, regions of interest (ROIs) were drawn over the tumor by using vendor software ASI Pro 5.2.4.0 on decay corrected whole-body coronal images. Assuming a tissue density of 1 g/ml, the ROIs were converted to MBq/g/min using a conversion factor, and then divided by the administered activity to obtain an imaging ROI-derived percent injected dose per gram (% ID/g)."}, "[9]": {"details": "for metabolic stability in vivo: urine after 1 hr", "procedure": "Metabolic Stability of AVP Peptide: Nude mice bearing LS174T tumor xenografts were intravenously injected with 3.7 MBq of ^18F-FP-AVP. Urine samples were collected 1 h after tracer injection and analyzed by HPLC.\nRadiochemistry: Semi-preparative reversed-phase high performance liquid chromatography (RPHPLC) using a Vydac protein and peptide column (218TP510; 5 μm, 250×10 mm) was performed on a Dionex 680 chromatography system with a UVD 170U absorbance detector and model 105S single-channel radiation detector (Carroll & Ramsey Associates). The recorded data were processed using Chromeleon version 6.50 software. With a flow rate of 5 ml/min, the mobile phase was changed from 95% solvent A [0.1% trifluoroacetic acid (TFA) in water] and 5% B [0.1% TFA in acetonitrile] (0-2 min) to 35% solvent A and 65% solvent B at 32 min. […] C18 Sep-Pak cartridges (Waters) were pretreated with ethanol and water before use."}, "[10]": {"system": "LS174T human colorectal cancer", "test": "Tumor growth study", "assay_type": "in vivo, mice", "description": "Animal Models: Female athymic nude mice (nu/nu) were obtained from Harlan (Indianapolis, Ind.) at 6-8 weeks of age and were kept under sterile conditions. The LS174T or 22B cells were harvested and suspended in sterile PBS at a concentration of 5×10^7 viable cells/ml. Viable tumor cells (5×10^6) in sterile PBS (100 μL) were injected subcutaneously into the right shoulder. […] Tumor growth was followed by caliper measurements of perpendicular measures of the tumor. The tumor volume was estimated by the formula: tumor volume=a×(b2)/2, where a and b were the tumor length and width respectively in mm."}},
  "note": "Where two headings read alike, the source gives them in different places. Where a SMILES comes first, the peptide text is derived from it. Where no end group is shown, it is not given here. The star is where a group is joined. Propanoyl(2-F) = CC(F)C(=O)*",
  "data": [
    {"compound": "LLADTTHHRPWT [AVP]", "values": [
      {"measurement": "effect on cells (MTT)", "setting": "[1]", "value": "little effect"},
      {"measurement": "effect on cells (MTT)", "setting": "[2]", "value": "little effect"},
      {"measurement": "effect on cells (MTT)", "setting": "[3]", "value": "little effect"},
      {"measurement": "concentration in LS174T tumor", "setting": "[4]", "value": "is concentrated"},
      {"measurement": "concentration in / binding to 4T1 tumor", "setting": "[5]; listed as AVP peptide", "value": "no binding"},
      {"measurement": "concentration in / binding to 4T1 tumor", "setting": "[5]; listed as Bevacizumab (AVASTIN™)-responsive peptide", "value": "not concentrated"},
      {"measurement": "concentration in 22B tumor", "setting": "[6]", "value": "is concentrated"},
      {"measurement": "concentration in tumor responding to ZD4190 therapy", "setting": "[7]", "value": "concentrated"}
    ]},
    {"compound": "CC(C)C[C@H](NC(=O)C(C)F)C(=O)N[C@@H](CC(C)C)C(=O)N[C@@H](C)C(=O)N[C@@H](CC(=O)O)C(=O)N[C@H](C(=O)N[C@H](C(=O)N[C@@H](Cc1c[nH]cn1)C(=O)N[C@@H](Cc1c[nH]cn1)C(=O)N[C@@H](CCCNC(=N)N)C(=O)N1CCC[C@H]1C(=O)N[C@@H](Cc1c[nH]c2ccccc12)C(=O)N[C@H](C(=O)O)[C@@H](C)O)[C@@H](C)O)[C@@H](C)O", "note": "(some centres unmarked) [18F-FP-AVP] ({Propanoyl(2-F)}-LLADTTHHRPWT-OH)", "values": [
      {"measurement": "microPET tumor uptake, Avastin treated versus control PBS treated tumors", "setting": "[8]", "value": "significantly higher uptake"},
      {"measurement": "metabolic stability in vivo", "setting": "[9]", "value": "good metabolic stability"},
      {"measurement": "metabolic stability in vivo", "setting": "[9]; listed as 18F-labeled Bevacizumab (AVASTIN™)-responsive peptide", "value": "minimal degradation or metabolism"},
      {"measurement": "intact tracer in urine", "setting": "[9]; urine sample 1 h after i.v. injection, HPLC", "value": "about 90%"}
    ]},
    {"compound": "Bevacizumab (AVASTIN™): recombinant humanized monoclonal IgG1 antibody that binds human VEGF", "values": [
      {"measurement": "additional time after imaging until statistically significant change in tumor volume versus saline control", "setting": "[10]; LS174T and 22B tumor models, imaging on fifth day of treatment", "value": "5 to 6", "unit": "days"},
      {"measurement": "difference in tumor volume between treatment and control groups", "setting": "[10]; fifth day following the start of treatment, 1 day after three doses", "value": "no difference"}
    ]}
  ]
}
